{
  "source": "patent US20220409595A1",
  "about": "“GLUCOSYLCERAMIDE SYNTHASE INHIBITORS” (GENZYME CORPORATION, priority 2013, published 2022)",
  "key": {"[1]": {"tested_on": "K14 mouse model of type 2 Gaucher disease", "details": "cited from earlier work"}, "[2]": {"tested_on": "Fabry iPSC-derived cardiomyocytes", "assay": "GL-3 content of Fabry iPSC-derived cardiomyocytes (beating EBs) by mass spectrometry", "assay_type": "cell-based, human", "description": "GCS452 [(S)-quinuclidin-3-yl (2-(2-(4-fluorophenyl)thiazol-4-yl)propan-2-yl) carbamate], a selective glucosylceramide synthase inhibitor, was tested to evaluate its potential to prevent GL-3 accumulation in Fabry iPSC-derived cardiomyocytes. EBs were treated eighteen days after induction of cardiac differentiation. At this time point, accumulation was low in the FD cardiomyocytes (FIG. 4). The FD and WT cardiomyocytes were treated with 1 μM GCS452 for 15 days.\nIt was next determined whether the compound could reduce levels of accumulated GL-3 when significant GL-3 accumulation is present at the start of treatment (FIG. 4). […]\nIn parallel, it was investigated whether agalsidase beta could clear accumulated GL-3 in one month old Fabry cardiomyocytes. EBs were treated with 0.3p g/mL of agalsidase beta for 5 days and GL-3 content was analyzed as described for GCS452. GL-3 vacuoles were not detected in treated Fabry cardiomyocytes using ICC (FIG. 5C). […]\nPellets containing EBs were extracted in a solution of acetonitrile:methanol (1:1). The extracts were directly injected onto a 2.1×100 mm, 1.7 μM BEH Hilic column (Waters), resolved with a Waters Acquity UPLC system, and analyzed for C16, C18, C20, C22, C23, C24, C24:1, C24(OH), and C24:1(OH) GL-3 isoforms and lyso-GL-3 in multiple-reaction monitoring (MRM) and positive-ion mode with an API-4000 mass spectrometer (ABSciex, Framingham, Mass.). […]"}, "[3]": {"tested_on": "Fabry iPSC-derived cardiomyocytes", "assay": "Immunocytochemistry of GL-3 and Lamp2 in Fabry iPSC-derived cardiomyocytes", "assay_type": "cell-based, human", "description": "It was next determined whether the compound could reduce levels of accumulated GL-3 when significant GL-3 accumulation is present at the start of treatment (FIG. 4). Twenty eight post-start of differentiation, beating EBs were treated with 1 μM of GCS452 for 15 days. The EBs were dissociated and plated at the end of the treatment, and ICC analysis was performed. […] GL-3 reduction in treated Fabry EBs was confirmed by mass spectrometry. While there was a 13 to 18 fold increase of GL-3 in untreated FD cardiomyocytes compared to WT, GL-3 levels increased by 4.5 to 5.5 fold in treated FD cardiomyocytes after 15 days of treatment with GCS452. This corresponds to a 2.3 to 2.8 fold reduction in accumulated GL-3 as compared to GL-3 levels at the start point (TO) of treatment (FIG. 5B). In parallel, it was investigated whether agalsidase beta could clear accumulated GL-3 in one month old Fabry cardiomyocytes. EBs were treated with 0.3p g/mL of agalsidase beta for 5 days and GL-3 content was analyzed as described for GCS452. GL-3 vacuoles were not detected in treated Fabry cardiomyocytes using ICC (FIG. 5C). […] One month old beating EBs were harvested and dissociated by using the embryoid body dissociation kit (Miltenyi Biotech, Bergisch Gladbach). Dissociated cells were plated on matrigel coated dishes. Five days latter, cells were fixed using 8% de formaldehyde solution (Sigma-Aldrich, St. Louis, Mo.) in DPBS (Gibco, Carlsbad, Calif.) and permeabilized in 0.05% Tween 20 (Sigma Life Science, St. Louis, Mo.) 20 minutes at room temperature. The samples were incubated with the primary antibodies over night at 4° C. Secondary antibodies were applied one hour at room temperature. Primary antibodies used were mouse monoclonal IgG1 directed against—Actinin, at the final dilution 1/1500 (Sigma Life Science, St. Louis, Mo.), rat monoclonal IgM directed against GL-3/CD77, at the final dilution 1/300 (Abcam, Cambridge, US) and mouse monoclonal IgG1 directed against LAMP2, at the final dilution 1/500 (Santa Cruz Biotechnology, Dallas, Tex.). The secondary antibodies were Alexa Fluor 488 goat anti-mouse IgG (Molecular Probes, Carlsbad, Calif.) Alexa Fluor 555 goat anti-mouse IgG (Molecular Probes, Carlsbad, Calif.) and Alexa Fluor 488 goat anti-rat IgG (Molecular Probes, Carlsbad, Calif.). They were used at the final dilution 1/1000."}, "Fabry patients": {"tested_on": "Fabry patients", "details": "cited from earlier work"}, "[4]": {"details": "0.3p g/mL for 5 days, one month old Fabry cardiomyocytes"}, "[5]": {"details": "3 μg/mL, one month old Fabry iPSC-derived cardiomyocytes, end of treatment"}, "[6]": {"details": "1 μM for 15 days, treatment from day 28"}},
  "note": "Entries after “also recorded” stand apart in the source; their conditions may differ. Like-named read-outs stand apart in the source and are kept apart here.",
  "data": [
    {"compound": "CC(C)(NC(=O)OC1CN2CCC1CC2)c1cccc(-c2ccc(F)cc2)c1", "note": "(centres unmarked) [Gz161, Quinuclidin-3-yl (2-(4′-fluoro-[1,1′-biphenyl]-3-yl)propan-2-yl)carbamate]", "values": [
      {"measurement": "brain neuropathology", "setting": "[1]", "result": "reduced"},
      {"measurement": "lifespan", "setting": "[1]", "result": "extended"},
      {"measurement": "brain GluCer and GluSph", "setting": "[1]; see Examples 122-125 of WO2012/129084", "result": "reduce"}
    ]},
    {"compound": "agalsidase beta: recombinant α-GalA, enzyme replacement therapy approved for the treatment of Fabry disease", "values": [
      {"measurement": "GL-3 clearance in Fabry cardiomyocytes", "setting": "[2]; [4]", "result": "Complete clearance; also recorded: clearance of GL-3"},
      {"measurement": "GL-3 content (ICC), FIG. 5C legend", "setting": "[3]; [5]", "result": "not or was very slightly detectable"},
      {"measurement": "number of Lamp2 vacuoles and intensity of the signal (ICC), FIG. 5C legend", "setting": "[3]; [5]", "result": "reduced"},
      {"measurement": "GL-3 vacuoles (ICC)", "setting": "[3]; [4]", "result": "not detected"},
      {"measurement": "GL-3 deposits / accumulation in cardiomyocytes", "setting": "Fabry patients; Fabry patients, cardiac biopsies, after 5 and 12 months of treatment", "result": "not reduced; also recorded: no effect"},
      {"measurement": "GL-3 deposits in capillary endothelium / heart microvasculature", "setting": "Fabry patients; Fabry patients", "result": "effectively clears"},
      {"measurement": "GL-3 deposits in capillary endothelium / heart microvasculature", "setting": "Fabry patients; Fabry patients, listed as Agalsidase beta", "result": "consistently clear"},
      {"measurement": "left ventricular mass", "setting": "Fabry patients; treated Fabry patients", "result": "Modest reductions"}
    ]},
    {"compound": "CC(C)(NC(=O)O[C@@H]1CN2CCC1CC2)c1csc(-c2ccc(F)cc2)n1", "note": "[GCS452, (S)-quinuclidin-3-yl (2-(2-(4-fluorophenyl)thiazol-4-yl)propan-2-yl) carbamate]", "values": [
      {"measurement": "GL-3 levels / accumulation in treated FD cardiomyocytes (prevention)", "setting": "[2]; 1 μM for 15 days, treatment from day 18 after induction of cardiac differentiation", "result": "close to the physiological levels of WT untreated cells"},
      {"measurement": "GL-3 labeling (ICC)", "setting": "[3]; [6]", "result": "not or was very slightly detectable; also recorded: significant reduction"},
      {"measurement": "Lamp2 signal intensity / number of Lamp2 vacuoles (ICC)", "setting": "[3]; [6]", "result": "reduced; also recorded: concomitant decrease"}
    ]}
  ]
}
